Data set [1] is described as follows: Body weight of nude mice in the L3.6pl therapy study. Particulars: nude mice with orthotopic L3.6pl tumors; AEE788 50 mg/kg oral 3x/week, STI571 50 mg/kg oral daily, gemcitabine 50 mg/kg i.p. twice weekly; 4 weeks, killed day 49; n=10. In kind it is in vivo. The method, then:
Treatment of Established Human Pancreatic Carcinoma Tumors Growing in the Pancreas of Athymic Nude Mice. Twenty-one days after the intra-pancreatic injection of 0.5×10^6 viable L3.6pl cells in 50 μl HBSS, the pancreatic tumors reach the size of 5-6-mm. […] All mice are treated for 4 weeks and killed on day 49 of the experiment.
Necropsy Procedures and Histological Studies. In the first treatment study, the mice are killed on day 49 after tumor cell injection, weighted, and necropsied. Tumors growing in the pancreas are excised and weighed. For immunohistochemical staining procedures, one part of the tumor tissue is fixed in formalin and embedded in paraffin and the other is embedded in OCT compound (Miles, Inc., Elkhart, Ind.), rapidly frozen in liquid nitrogen, and stored at −70° C.
Statistical Analysis. Body weight, tumor weight, PCNA-positive cells, mean vessel density (CD31/PECAM-1), and TUNEL-positive cells are compared using the Mann-Whitney U test. Survival analysis is computed by the Kaplan-Meier method and compared by the Log rank test.

Data set [2] relates to EGF, VEGF, PDGF-BB, EGFR, VEGFR, and PDGFR. Kind of data set: IHC expression level of growth factors and receptors in L3.6pl pancreatic tumors. In kind it is in vivo, human. Particulars: IHC of pancreatic tumors from treated mice. From the text:
Immunohistochemical (IHC) Analysis to Detect EGF, VEGF, PDGF-BB, EGFR, VEGFR, PDGFRβ, pEGFR, pVEGFR, pPDGF-R in Pancreatic Tumors. Paraffin-embedded pancreatic tumors of mice from all treatment groups are immunostained to evaluate the expression of EGF, VEGF, PDGF-BB, EGFR, VEGFR, PDGFRβ, phosphorylated (p)EGFR, pVEGFR, and pPDGFRβ. The sections are deparaffinized in xylene, dehydrated with alcohol and rehydrated in PBS. Endogenous peroxidase is blocked with 3% hydrogen peroxide in PBS. Samples are exposed to protein block (5% normal horse serum, 1% normal goat serum in PBS) and incubated overnight at 4° C. with each primary antibody at the appropriate dilution. After 1 h incubation at room temperature with peroxidase-conjugated secondary antibody, positive reaction is detected by exposure to stable 3,3′-diaminobenzidine (DAB) (Phoenix Biotechnologies, Huntsville, Ala.). Slides are counterstained with Gill's #3 hematoxylin. Sections stained for immunoperoxidase or hematoxylin and eosin are examined in a microscope equipped with a three-chip-charged coupled device (CCD) color video camera. Digital images are captured using Optimas Image Analysis software (Media Cybernetics, Md.).

For data set [3], the system named is L3.6pl human pancreatic cancer cells. In words: Apoptosis (TUNEL) in L3.6pl tumors. In kind it is in vivo. Particulars: Median ± S.D.; TUNEL-positive cells in 10 random 0.159-mm^2 fields at ×100. On the procedure:
Analysis of apoptotic cells is performed by using a commercially available TUNEL kit (Promega) with the following modifications: Samples are fixed and incubated with an equilibration buffer followed by a reaction buffer (containing nucleotide mix and terminal deoxynucleotidyl transferase enzyme). Immunofluorescence microscopy is performed in a Zeiss Axioplan microscope (Carl Zeiss, Inc., Thornwood, N.Y.) equipped with an HBO 100 mercury lamp, narrow bandpass filters to individually select for green, red, and blue fluorescence (Chroma Technology Corp., Brattleboro, Vt.). Images are captured using a cooled CCD Hamamatsu Orca camera (Hamamatsu Corp., Bridgewater, N.J.) and Image Pro Analysis software (Media Cybernetics, Silver Spring, Md.). Photomontages are prepared using Adobe Photoshop software (Adobe Systems, Inc., San Jose, Calif.). […] Statistical Analysis. Body weight, tumor weight, PCNA-positive cells, mean vessel density (CD31/PECAM-1), and TUNEL-positive cells are compared using the Mann-Whitney U test. Survival analysis is computed by the Kaplan-Meier method and compared by the Log rank test.

Data set [4] has as its system Endothelial cells. In words: Mean vessel density (CD31/PECAM-1) in L3.6pl tumors. It is filed as in vivo, nude mice. Particulars: Median ± S.D., microvessels in 10 random 0.159-mm^2 fields at ×100. On the procedure:
IHC Determination of Proliferating Cell Nuclear Antigen (PCNA), CD31/PECAM-1 (Endothelial Cells) and TUNEL (Apoptosis). Paraffin-embedded tissues are used for IHC identification of proliferating cell nuclear antigen (PCNA). Frozen tissues used for identification of CD31/PECAM-1 are sectioned (8-10 μm), mounted on positively charged slides, and air-dried for 30 min. Frozen sections are fixed in cold acetone (5 min), in acetone/chloroform (v/v; 5 min), and again in acetone (5 min), and washed with PBS. IHC procedures are performed as described previously (Hwang et al. in Clin Cancer Res 2003; 9:6534-44). Control samples exposed to a secondary antibody alone show no specific staining. […] Statistical Analysis. Body weight, tumor weight, PCNA-positive cells, mean vessel density (CD31/PECAM-1), and TUNEL-positive cells are compared using the Mann-Whitney U test. Survival analysis is computed by the Kaplan-Meier method and compared by the Log rank test.

Data set [5] concerns tumor-associated endothelial cells. Kind of data set: CD31/TUNEL fluorescent double labeling, apoptosis of tumor-associated endothelial cells. It is filed as in vivo, nude mice. The following applies: Median ± S.D.; ratio of apoptotic endothelial cells to total endothelial cells. The method, then:
Double Immunofluorescence Staining for CD31/PECAM-1 and EGFR, pEGFR, VEGFR, pVEGFR, PDGFRβ, pPDGFRβ, Pericytes (desmin-positive cells), and TUNEL. Frozen sections of pancreatic tumors are mounted on slides and fixed. Immunofluorescence for CD31 is performed using Alexa594 conjugated secondary antibody, and samples are again blocked briefly in a blocking solution (5% normal horse serum and 1% normal goat serum in PBS) as described above and incubated with antibody against human EGFR, pEGFR, VEGFR, pVEGFR, PDGFRβ, pPDGFRβ, or desmin at 4° C. overnight. After washes and blocking with blocking solution, samples are incubated with Alexa488 conjugated secondary antibody. Endothelial cells are identified by red fluorescence, and EGF-R, pEGFR, VEGFR, pVEGFR, PDGFRβ, pPDGFRβ and desmin positive cells (pericytes) are identified by green fluorescence. The presence of growth factor receptors and phosphorylated receptors on endothelial cells are detected by colocalization of red and green fluorescence, which appeared yellow. TUNEL-positive apoptotic cells are detected by localized green fluorescence within cell nuclei, and endothelial cells are identified by red fluorescence. Apoptotic endothelial cells are identified by yellow fluorescence within the nuclei.

Marks after values point to notes of the source that are not given here.

`CCN1CCN(Cc2ccc(-c3cc4c(N[C@H](C)c5ccccc5)ncnc4[nH]3)cc2)CC1` [AEE788]: the “Body weight(g) Median” value in data set [1] is given as 26.2 g. Moreover, the “expression level of EGF, VEGF, PDGF-BB, EGFR, VEGFR, and PDGFR by the tumor cells or in the stroma cells” value in data set [2] is recorded as “do not alter the expression level”. The “Tumor cells TUNEL (number of apoptotic tumor cells)” value in data set [3] was 14 ± 4^f. Besides, in data set [4], the “Endothelial cells CD31 (mean vessel density)” value was 25 ± 5^d. Besides, the “Endothelial cells TUNEL+ (%)” value in data set [5] was 3 ± 3^e %.

With `Nc1ccn([C@@H]2O[C@H](CO)[C@@H](O)C2(F)F)c(=O)n1` [Gemcitabine], the “Body weight(g) Median” value in data set [1] was 25.7 g. The “expression level of EGF, VEGF, PDGF-BB, EGFR, VEGFR, and PDGFR by the tumor cells or in the stroma cells” value in data set [2] is recorded as “do not alter the expression level”. Also, the “Tumor cells TUNEL (number of apoptotic tumor cells)” value in data set [3] was 8 ± 3^f. Also, the “Endothelial cells CD31 (mean vessel density)” value was 38 ± 7 in data set [4] and “does not decrease MVD” in data set [4] (listed as gemcitabine). Also, the “Endothelial cells TUNEL+ (%)” value in data set [5] is on record as 1 ± 1%.

The record behind these values is patent US20080219977A1, “Combinations Comprising Gemcitabine and Tyrosine Kinase Inhibitors for the Treatment of Pancreatic Cancer” (priority 2005, published 2008).
